Laboratory results taken from BindingDB's records for doi:10.1016/0960-894X(96)00068-6 (1996).

Legend:
[1] = Inhibition of jack bean alpha-mannosidase
[2] = Compound was evaluated for inhibition of beta-glucosidase from almonds(sigma G 4511).
[3] = Compound was evaluated for inhibition of alpha-fucosidase from bovine kidney(sigma F 5884).
[4] = Compound was evaluated for inhibition of beta-galactosidase from aspergillus oryzae (sigma G 7256).
[5] = Compound was evaluated for inhibition of alpha-galactosidase from green coffee beans (sigma G 8507).

IC50 [1]: > 1000 µM
IC50 [2]: 80 µM
IC50 [3]: 270 µM
IC50 [4]: > 1000 µM
IC50 [5]: > 1000 µM
SMILES: CCCCN1CC(C)C(O)C(O)C1 (stereo not given) [1-Butyl-5-methyl-piperidine-3,4-diol]
